{"source": "ChEMBL document CHEMBL1201861", "about": "“Genomics of Drug Sensitity in Cancer screening data, Wellcome Trust Sanger Institute”", "assay_in_all_cases": "cells", "key": {"[1]": {"system": "DU-145", "assay_type": "functional, cell-based", "conditions": "Homo sapiens", "description": "SANGER: Inhibition of human DU-145 cell growth in a cell viability assay."}, "[2]": {"system": "NCI-H1793", "assay_type": "functional, cell-based", "conditions": "Homo sapiens", "description": "SANGER: Inhibition of human NCI-H1793 cell growth in a cell viability assay."}, "[3]": {"system": "BCPAP", "assay_type": "functional, cell-based", "conditions": "Homo sapiens", "description": "SANGER: Inhibition of human BCPAP cell growth in a cell viability assay."}, "[4]": {"system": "HGC-27", "assay_type": "functional, cell-based", "conditions": "Homo sapiens", "description": "SANGER: Inhibition of human HGC-27 cell growth in a cell viability assay."}, "[5]": {"system": "SK-LU-1", "assay_type": "functional, cell-based", "conditions": "Homo sapiens", "description": "SANGER: Inhibition of human SK-LU-1 cell growth in a cell viability assay."}, "[6]": {"system": "LK-2", "assay_type": "functional, cell-based", "conditions": "Homo sapiens", "description": "SANGER: Inhibition of human LK-2 cell growth in a cell viability assay."}, "[7]": {"system": "SW626", "assay_type": "functional, cell-based", "conditions": "Homo sapiens", "description": "SANGER: Inhibition of human SW626 cell growth in a cell viability assay."}, "[8]": {"system": "HuP-T4", "assay_type": "functional, cell-based", "conditions": "Homo sapiens", "description": "SANGER: Inhibition of human HuP-T4 cell growth in a cell viability assay."}, "[9]": {"system": "A-375", "assay_type": "functional, cell-based", "conditions": "Homo sapiens", "description": "SANGER: Inhibition of human A375 cell growth in a cell viability assay."}, "[10]": {"system": "J82", "assay_type": "functional, cell-based", "conditions": "Homo sapiens", "description": "SANGER: Inhibition of human J82 cell growth in a cell viability assay."}, "[11]": {"system": "KYSE-180", "assay_type": "functional, cell-based", "conditions": "Homo sapiens", "description": "SANGER: Inhibition of human KYSE-180 cell growth in a cell viability assay."}, "[12]": {"system": "HC-1", "assay_type": "functional, cell-based, Homo sapiens", "conditions": "Homo sapiens, HC-1", "description": "SANGER: Inhibition of human HC-1 cell growth in a cell viability assay."}, "[13]": {"system": "KOSC-2", "assay_type": "functional, cell-based", "conditions": "Homo sapiens", "description": "SANGER: Inhibition of human KOSC-2 cell growth in a cell viability assay."}, "[14]": {"system": "MDA-MB-175-VII", "assay_type": "functional, cell-based", "conditions": "Homo sapiens"}, "[15]": {"system": "KMOE-2", "assay_type": "functional, cell-based, Homo sapiens", "conditions": "Homo sapiens, KMOE-2", "description": "SANGER: Inhibition of human KMOE-2 cell growth in a cell viability assay."}, "[16]": {"system": "DMS-273", "assay_type": "functional, cell-based", "conditions": "Homo sapiens", "description": "SANGER: Inhibition of human DMS-273 cell growth in a cell viability assay."}, "[17]": {"system": "EFM-19", "assay_type": "functional, cell-based", "conditions": "Homo sapiens", "description": "SANGER: Inhibition of human EFM-19 cell growth in a cell viability assay."}, "[18]": {"system": "PC-14", "assay_type": "functional, cell-based", "conditions": "Homo sapiens", "description": "SANGER: Inhibition of human PC-14 cell growth in a cell viability assay."}, "[19]": {"system": "HPAF-II", "assay_type": "functional, cell-based", "conditions": "Homo sapiens", "description": "SANGER: Inhibition of human HPAF-II cell growth in a cell viability assay."}, "[20]": {"system": "HTC-C3", "assay_type": "functional, cell-based", "conditions": "Homo sapiens", "description": "SANGER: Inhibition of human HTC-C3 cell growth in a cell viability assay."}, "[21]": {"system": "NB17", "assay_type": "functional, cell-based, Homo sapiens", "conditions": "Homo sapiens, NB17", "description": "SANGER: Inhibition of human NB17 cell growth in a cell viability assay."}, "[22]": {"system": "HOS", "assay_type": "functional, cell-based", "conditions": "Homo sapiens", "description": "SANGER: Inhibition of human HOS cell growth in a cell viability assay."}, "[23]": {"system": "EC-GI-10", "assay_type": "functional, cell-based, Homo sapiens", "conditions": "Homo sapiens, EC-GI-10", "description": "SANGER: Inhibition of human EC-GI-10 cell growth in a cell viability assay."}, "[24]": {"system": "SK-MEL-30", "assay_type": "functional, cell-based", "conditions": "Homo sapiens", "description": "SANGER: Inhibition of human SK-MEL-30 cell growth in a cell viability assay."}, "[25]": {"system": "OE33", "assay_type": "functional, cell-based", "conditions": "Homo sapiens", "description": "SANGER: Inhibition of human OE33 cell growth in a cell viability assay."}, "[26]": {"system": "UMC-11", "assay_type": "functional, cell-based", "conditions": "Homo sapiens", "description": "SANGER: Inhibition of human UMC-11 cell growth in a cell viability assay."}, "[27]": {"system": "PC-3", "assay_type": "functional, cell-based", "conditions": "Homo sapiens", "description": "SANGER: Inhibition of human PC-3 cell growth in a cell viability assay."}, "[28]": {"system": "AU565", "assay_type": "functional, cell-based", "conditions": "Homo sapiens", "description": "SANGER: Inhibition of human AU565 cell growth in a cell viability assay."}, "[29]": {"system": "BHT-101", "assay_type": "functional, cell-based", "conditions": "Homo sapiens", "description": "SANGER: Inhibition of human BHT-101 cell growth in a cell viability assay."}, "[30]": {"system": "KYSE-510", "assay_type": "functional, cell-based", "conditions": "Homo sapiens", "description": "SANGER: Inhibition of human KYSE-510 cell growth in a cell viability assay."}, "[31]": {"system": "SK-OV-3", "assay_type": "functional, cell-based", "conditions": "Homo sapiens", "description": "SANGER: Inhibition of human SK-OV-3 cell growth in a cell viability assay."}, "[32]": {"system": "MDA-MB-415", "assay_type": "functional, cell-based", "conditions": "Homo sapiens"}, "[33]": {"system": "KYSE-270", "assay_type": "functional, cell-based", "conditions": "Homo sapiens", "description": "SANGER: Inhibition of human KYSE-270 cell growth in a cell viability assay."}, "[34]": {"system": "OVCAR-8", "assay_type": "functional, cell-based", "conditions": "Homo sapiens", "description": "SANGER: Inhibition of human OVCAR-8 cell growth in a cell viability assay."}, "[35]": {"system": "KYSE-140", "assay_type": "functional, cell-based", "conditions": "Homo sapiens", "description": "SANGER: Inhibition of human KYSE-140 cell growth in a cell viability assay."}, "[36]": {"system": "CAL-33", "assay_type": "functional, cell-based", "conditions": "Homo sapiens", "description": "SANGER: Inhibition of human CAL-33 cell growth in a cell viability assay."}, "[37]": {"system": "NCI-H727", "assay_type": "functional, cell-based", "conditions": "Homo sapiens", "description": "SANGER: Inhibition of human NCI-H727 cell growth in a cell viability assay."}, "[38]": {"system": "SK-MEL-28", "assay_type": "functional, cell-based", "conditions": "Homo sapiens", "description": "SANGER: Inhibition of human SK-MEL-28 cell growth in a cell viability assay."}, "[39]": {"system": "HuCCT-1", "assay_type": "functional, cell-based, HuCCT1", "conditions": "Homo sapiens", "description": "SANGER: Inhibition of human HuCCT1 cell growth in a cell viability assay."}, "[40]": {"system": "NUGC-3", "assay_type": "functional, cell-based", "conditions": "Homo sapiens", "description": "SANGER: Inhibition of human NUGC-3 cell growth in a cell viability assay."}, "[41]": {"system": "HCC 2998", "assay_type": "functional, cell-based", "conditions": "Homo sapiens", "description": "SANGER: Inhibition of human HCC2998 cell growth in a cell viability assay."}, "[42]": {"system": "HO-1-N-1", "assay_type": "functional, cell-based", "conditions": "Homo sapiens", "description": "SANGER: Inhibition of human HO-1-N-1 cell growth in a cell viability assay."}, "[43]": {"system": "NCI-H510A", "assay_type": "functional, cell-based, Homo sapiens", "conditions": "Homo sapiens, NCI-H510A", "description": "SANGER: Inhibition of human NCI-H510A cell growth in a cell viability assay."}, "[44]": {"system": "KU-19-19", "assay_type": "functional, cell-based", "conditions": "Homo sapiens", "description": "SANGER: Inhibition of human KU-19-19 cell growth in a cell viability assay."}, "[45]": {"system": "FTC-133", "assay_type": "functional, cell-based", "conditions": "Homo sapiens"}, "[46]": {"system": "RVH-421", "assay_type": "functional, cell-based", "conditions": "Homo sapiens", "description": "SANGER: Inhibition of human RVH-421 cell growth in a cell viability assay."}, "[47]": {"system": "MG-63", "assay_type": "functional, cell-based", "conditions": "Homo sapiens", "description": "SANGER: Inhibition of human MG-63 cell growth in a cell viability assay."}}}
{"smiles": "CN(NC(=O)CC(=O)NN(C)C(=S)c1ccccc1)C(=S)c1ccccc1", "note": "[ELESCLOMOL]", "values": [{"measurement": "IC50", "setting": "[1]", "value": "> 200", "unit": "nM"}, {"measurement": "IC50", "setting": "[2]", "value": "> 200", "unit": "nM"}, {"measurement": "IC50", "setting": "[3]", "value": 1.34, "unit": "nM"}, {"measurement": "IC50", "setting": "[4]", "value": 7.59, "unit": "nM"}, {"measurement": "IC50", "setting": "[5]", "value": 10.3, "unit": "nM"}, {"measurement": "IC50", "setting": "[6]", "value": 19.7, "unit": "nM"}, {"measurement": "IC50", "setting": "[7]", "value": 54, "unit": "nM"}, {"measurement": "IC50", "setting": "[8]", "value": 20.7, "unit": "nM"}, {"measurement": "IC50", "setting": "[9]", "value": 4.14, "unit": "nM"}, {"measurement": "IC50", "setting": "[10]", "value": 14.1, "unit": "nM"}, {"measurement": "IC50", "setting": "[11]", "value": 23.8, "unit": "nM"}, {"measurement": "IC50", "setting": "[12]", "value": "> 200", "unit": "nM"}, {"measurement": "IC50", "setting": "[13]", "value": 5.45, "unit": "nM"}, {"measurement": "IC50", "setting": "[14]", "value": "> 200", "unit": "nM"}, {"measurement": "IC50", "setting": "[15]", "value": 145, "unit": "nM"}, {"measurement": "IC50", "setting": "[16]", "value": 7.06, "unit": "nM"}, {"measurement": "IC50", "setting": "[17]", "value": 82.5, "unit": "nM"}, {"measurement": "IC50", "setting": "[18]", "value": 24.7, "unit": "nM"}, {"measurement": "IC50", "setting": "[19]", "value": 38.3, "unit": "nM"}, {"measurement": "IC50", "setting": "[20]", "value": 30.4, "unit": "nM"}, {"measurement": "IC50", "setting": "[21]", "value": 8.94, "unit": "nM"}, {"measurement": "IC50", "setting": "[22]", "value": 2.53, "unit": "nM"}, {"measurement": "IC50", "setting": "[23]", "value": 44.6, "unit": "nM"}, {"measurement": "IC50", "setting": "[24]", "value": "> 200", "unit": "nM"}, {"measurement": "IC50", "setting": "[25]", "value": "> 200", "unit": "nM"}, {"measurement": "IC50", "setting": "[26]", "value": "> 200", "unit": "nM"}, {"measurement": "IC50", "setting": "[27]", "value": 7.89, "unit": "nM"}, {"measurement": "IC50", "setting": "[28]", "value": 59.1, "unit": "nM"}, {"measurement": "IC50", "setting": "[29]", "value": 3.72, "unit": "nM"}, {"measurement": "IC50", "setting": "[30]", "value": 110, "unit": "nM"}, {"measurement": "IC50", "setting": "[31]", "value": 3.75, "unit": "nM"}, {"measurement": "IC50", "setting": "[32]", "value": 137, "unit": "nM"}, {"measurement": "IC50", "setting": "[33]", "value": 37.1, "unit": "nM"}, {"measurement": "IC50", "setting": "[34]", "value": 3.99, "unit": "nM"}, {"measurement": "IC50", "setting": "[35]", "value": 21, "unit": "nM"}, {"measurement": "IC50", "setting": "[36]", "value": 22.2, "unit": "nM"}, {"measurement": "IC50", "setting": "[37]", "value": "> 200", "unit": "nM"}, {"measurement": "IC50", "setting": "[38]", "value": 79.7, "unit": "nM"}, {"measurement": "IC50", "setting": "[39]", "value": 5.52, "unit": "nM"}, {"measurement": "IC50", "setting": "[40]", "value": 7.33, "unit": "nM"}, {"measurement": "IC50", "setting": "[41]", "value": 111, "unit": "nM"}, {"measurement": "IC50", "setting": "[42]", "value": 24.5, "unit": "nM"}, {"measurement": "IC50", "setting": "[43]", "value": 12.4, "unit": "nM"}, {"measurement": "IC50", "setting": "[44]", "value": 7.09, "unit": "nM"}, {"measurement": "IC50", "setting": "[45]", "value": 27, "unit": "nM"}, {"measurement": "IC50", "setting": "[46]", "value": 76.2, "unit": "nM"}, {"measurement": "IC50", "setting": "[47]", "value": "> 200", "unit": "nM"}]}
